Experimental data taken from patent US20060134248A1, “Hop acids as a replacement for antibiotics in animal feed” (priority 2002, published 2006).
Marks after values point to notes of the source that are not given here.

Legend:
Details in all cases: hop acids 2 ppm, monensin 6 ppm
Isotrichia = assay: In vitro microbe measurements: protozoa count, Isotrichia
total bacteria = assay: In vitro microbe measurements: bacterial purine (measurement of total bacteria); type: cell-based
Text: Proprionate is largely responsible for animal growth. […] There appears to be no effect on alfalfa protozoa and alfalfa bacterial purine by the beta acids. Again, reduction in protozoa and bacteria levels means more food and energy for animal growth.

Entodiniomorph spp = assay: In vitro microbe measurements: protozoa count, Entodiniomorph spp / Entodinia

Compound: CC[C@@]1([C@@H]2O[C@@H]([C@H]3O[C@@](O)(CO)[C@H](C)C[C@@H]3C)C[C@@H]2C)CC[C@H]([C@]2(C)CC[C@]3(C[C@H](O)[C@@H](C)[C@@H]([C@@H](C)[C@@H](OC)[C@H](C)C(=O)O)O3)O2)O1 [monensin]
- Protozoa, Isotrichia (Isotrichia; alfalfa): 0^c × 10^3 no/mL
- Protozoa, Isotricha (Isotrichia; barley): 0 × 10^3 no/mL
- Protozoa, Isotricha (Isotrichia; corn): 0.7 × 10^3 no/mL
- Bacterial purines (total bacteria; alfalfa): 2.6^c mg/tube
- Protozoa and bacterial purines versus control, in words (total bacteria; alfalfa): most effectively eliminate
- Bacterial purines (total bacteria; barley): 1.5^b mg/tube
- Bacterial purines (total bacteria; corn): 1.4^a Mg/tube
- Protozoa, Entodinia (Entodiniomorph spp; alfalfa): 6^c × 10^3 no/mL
- Protozoa, Entodinia (Entodiniomorph spp; barley): 38^b × 10^3 no/mL
- Protozoa, Entodinia (Entodiniomorph spp; corn): 28^bc × 10^3 no/mL
